{"source": "patent US20020034534A1", "about": "“System and method for delivering a therapeutic agent over an extended period of time in conjuction with a receptor loading dose of the therapeutic agent” (priority 1999, published 2002)", "key": {"[1]": {"assay": "Naltrexone plasma pharmacokinetics from the literature and its reinterpretation", "assay_type": "in vivo", "excerpt": "Phase II (RLD)—Days two to thirty. […] The higher serum levels of this phase serve two purposes. First, for the particular therapeutic agent chosen, the long-term maintenance dose releases drug slowly at a constant (zero order) rate. […] It has the disadvantage, however, that the plasma level will slowly rise until it reaches a plateau, which is referred to as steady state. The time to reach steady state is a function of the drug's half-life, a measure of the time it takes for half of the drug to be eliminated from the body. It takes approximately six half-lives to reach steady state for any drug. […] During this time it is essential that an additional source of drug be administered as a receptor loading dose to continue to saturate the drug receptors. A second reason for this loading dose, particularly for drugs used to treat addictions, is to prevent cravings and other withdrawal symptoms.\nA period of approximately 3.3 half-lives is necessary to achieve a 90% receptor occupancy level.\nPhase II (months 1 to 2) provides higher levels than the minimum needed to prevent narcotic highs. […] For pharmacokinetic reasons, the higher levels are also needed until the steady state distribution levels are reached through the slower maintenance dose."}, "opiate receptors": {"system": "opiate receptors", "details": "recommended dose of 50 mg taken orally; cited from earlier work"}}, "data": [{"smiles": "O=C1CC[C@@]2(O)[C@H]3Cc4ccc(O)c5c4[C@@]2(CCN3CC2CC2)[C@H]1O5", "note": "[naltrexone]", "values": [{"measurement": "time to reach 90% receptor occupancy level", "setting": "[1]; calculated as 3.3×72 hr at the maintenance rate", "result": "about 10 days"}, {"measurement": "time to reach 98% occupancy", "setting": "[1]; maintenance rate", "result": "about 20 days"}, {"measurement": "steady state level", "setting": "[1]; subcutaneous product, zero order rate of 0.56 mg/day", "result": "about 7.5 ng/ml"}, {"measurement": "duration of complete blockage", "setting": "opiate receptors", "result": 24, "unit": "h"}]}]}
